These results are taken from ChEMBL document CHEMBL1144379, “The development of monocyclic pyrazolone based cytokine synthesis inhibitors” (Bioorg Med Chem Lett, 2005).

Structures are written as SMILES. Converted amounts (≈) assume the structure as drawn.

One data set has as its system THP-1. The data set is described as follows: Inhibitory activity against lipopolysaccharide stimulated TNF-alpha production in THP-1 cells (human monocytic cells). Format: functional, cell-based.
A short description of data set [1]: Bioavailability in rat. Format: ADME, organism-based. The conditions noted are these: in vivo.
A short description of data set [2]: Half life in rats. Type of data set: ADME. Particulars: rat, in vivo.
Data set [3] in a line: Aqueous solubility […]. Type of data set: physicochemical, Rattus norvegicus. Particulars: aqueous medium.
The nature of data set [4]: Metabolism measured as percent loss at 4 hours in rat hepatocytes. The conditions noted are these: read-out: Metabolism. Type of data set: ADME, cell-based, Hepatocyte.
Data set [5] in a line: Inhibition of Mitogen-activated protein kinase p38 alpha.

On to `C[C@H](Nc1nccc(-c2c(-c3ccc(F)cc3)c(=O)n(C3CCN(C)CC3)n2C)n1)c1ccccc1`, for which the IC50 (in general, the midpoint of a concentration-inhibition curve) with THP-1 was 15 nM.

For the compound `C[C@H](Nc1nccc(-c2c(-c3ccc(F)cc3)c(=O)n(C)n2C)n1)C(C)(C)O`, the IC50 in the data set with THP-1 turned out to be 3970 nM.

With `COC[C@H](C)Nc1nccc(-c2c(-c3ccc(F)cc3)c(=O)n(C3CCNCC3)n2C)n1`, it took 261 nM to reach half-maximal inhibition with THP-1 (IC50).

Regarding `COC[C@@H](C)Nc1nccc(-c2c(-c3ccc(F)cc3)c(=O)n(C)n2C2CCNCC2)n1.O=C(O)C(F)(F)F`, the bioavailability (as a rule, dose-corrected exposure relative to a reference, in per cent) in data set [1] is 15%. The half-life (in general, the time needed for the level to fall by half in the phase considered) in data set [2] was 2.2 h. In addition, in data set [3], the solubility (as a rule, the dissolved amount per volume that the medium holds) was > 30000 µg/mL. Besides, the metabolised at 4 h in data set [4] is 0%. The same compound came in with an IC50 with THP-1 of 75 nM.

Regarding `C[C@H](Nc1nccc(-c2c(-c3ccc(F)cc3)c(=O)n(C)n2C)n1)c1ccccc1`, in data set [1], the bioavailability is 32%. This compound also showed a half-life in data set [2] of 1.1 h. Also, the solubility in data set [3] was 123 µg/mL (≈ 305 µM). The metabolised at 4 h in data set [4] stood at 44%. In addition, the midpoint of inhibition with THP-1, the IC50, lay at 13 nM.

For `CC[C@H](C)Nc1nccc(-c2c(-c3ccc(F)cc3)c(=O)n(C)n2C)n1`, in the data set on THP-1, the IC50 turned out to be 41 nM.

In turn, `COCCn1c(-c2ccnc(N[C@@H](C)c3ccccc3)n2)c(-c2ccc(F)cc2)c(=O)n1C` yielded a solubility in data set [3] of 429 µg/mL (≈ 959 µM). For the same compound, the metabolised at 4 h in data set [4] amounted to 30%. In the data set on THP-1, this compound had a 50% inhibitory concentration (IC50) of 309 nM.

`C[C@H](Nc1nccc(-c2c(-c3ccc(F)cc3)c(=O)n(C)n2C)n1)c1cccnc1`: in the data set on THP-1, 647 nM corresponded to half-maximal inhibition (IC50).

In the case of `C[C@H](Nc1nccc(-c2c(-c3ccc(F)cc3)c(=O)n(C)n2C)n1)c1ccncc1`, in the data set on THP-1, the IC50 is > 5000 nM.

Turning to `COCCn1c(-c2ccnc(N[C@H](C)COC)n2)c(-c2ccc(F)cc2)c(=O)n1C`, half-maximal inhibition with THP-1 (IC50) required 924 nM.

`C[C@H](Nc1nccc(-c2c(-c3ccc(F)cc3)c(=O)n(C3CCNCC3)n2C)n1)C(C)(C)O`: the IC50 in the data set with THP-1 is 1080 nM.

In the case of `C[C@H](Nc1nccc(-c2c(-c3ccc(F)cc3)c(=O)n(C)n2C2CCNCC2)n1)c1ccccc1`, in the data set on THP-1, the midpoint of inhibition, the IC50, lay at 155 nM.

`Cn1c(-c2ccnc(Oc3ccccc3)n2)c(-c2ccc(F)cc2)c(=O)n1C`: the IC50 with THP-1 was determined as 288 nM.

Compound `COC[C@H](C)Nc1nccc(-c2c(-c3ccc(F)cc3)c(=O)n(C)n2C)n1` came in with an IC50 in the data set on THP-1 of 1430 nM.

`C[C@H](Nc1nccc(-c2c(-c3ccc(F)cc3)c(=O)n(C)n2C)n1)c1ccccn1`: in the data set with THP-1, the IC50 was 1430 nM.

On to `C[C@H](Nc1nccc(-c2c(-c3ccc(F)cc3)c(=O)n(C3CCNCC3)n2C)n1)c1ccccc1.O=C(O)C(F)(F)F`, for which the bioavailability in data set [1] stood at 17%. Also, the half-life in data set [2] was 3.2 h. This compound registered a solubility in data set [3] of 650 µg/mL. In addition, the metabolised at 4 h in data set [4] was 32%. Moreover, the IC50 with THP-1 turned out to be 32 nM.

For `COCCn1c(-c2ccnc(Oc3ccccc3)n2)c(-c2ccc(F)cc2)c(=O)n1C`, the midpoint of inhibition in the data set with THP-1, the IC50, lay at 1430 nM.

`CC(=O)N1CCC(n2c(=O)c(-c3ccc(F)cc3)c(-c3ccnc(N[C@@H](C)c4ccccc4)n3)n2C)CC1` registered a concentration for half-maximal inhibition (IC50) in the data set with THP-1 of 14 nM.

In turn, `CCn1c(-c2ccnc(N[C@@H](C)c3ccccc3)n2)c(-c2ccc(F)cc2)c(=O)n1CC` showed an IC50 in the data set with THP-1 of 120 nM.

On to `O=c1c(-c2ccc(F)cc2)c(-c2ccncc2)[nH]n1-c1ccc(Cl)cc1`, for which, in the data set with THP-1, the IC50 is 4220 nM.

Compound `Cn1c(=O)c(-c2ccc(F)cc2)c(-c2ccnc(Oc3ccccc3)n2)n1C1CCNCC1` had an IC50 in the data set on THP-1 of 2650 nM.

Regarding `Cn1c(-c2ccnc(Oc3ccccc3)n2)c(-c2ccc(F)cc2)c(=O)n1C1CCNCC1`, the IC50 in the data set with THP-1 is 1810 nM.

Regarding `CCOCn1nc(-c2ccncc2)c(-c2ccc(F)cc2)n1`, the results for the IC50 (in data set [5]; in the data set on THP-1) were 2430 nM and 1070 nM, respectively.
